ChEMBL document CHEMBL1122692, “Catechol derivatives of 6-aminobenzocycloheptene: assessment of dopaminergic effects” (1984)

Assays:
Assay type in all cases: functional
[1] = system: Felis catus; assay: Compound was evaluated for the biological activity (pressure) in anesthetized cats at a dose of 40 ug/kg
[2] = system: Felis catus; assay: Compound was evaluated for the biological activity (pressure) in anesthetized cats at a dose of 10 ug/kg
[3] = system: Felis catus; assay: Compound was evaluated for the biological activity (pressure) in anesthetized cats at a dose of 20 ug/kg

For `NC1CCCc2c(ccc(O)c2O)C1` (stereo not drawn), the Pressure [1] was 70 mmHg, the Pressure [2] was 15 mmHg and the Pressure [3] was 38 mmHg.
